Columns and labels:
[1] = test system: patients with liver cancer; assay: Liver toxicity (SGOT, SGPT, Total Bilirubin), worst CTC Grade by cycle, intrahepatic artery nemorubicin q8wk vs q6wk; format: in vivo, human
Experimental: (§1) The objective of the study was to shorten the time interval between treatment administrations from every 8 weeks (q8wk) of the protocol as reported in WO 00/15203 to every 6 weeks (q6wk). This was done in the attempt of improving the therapeutic potential of nemorubicin treatment through an increase of the dose intensity of the therapy, simultaneously safeguarding patient safety.
(§2) Overall, 13 patients were treated with the q8wk schedule (total 25 cycles administered; doses ranged from 200 to 800 mcg/m^2), and 11 patients were treated with the q6wk schedule (total 32 cycles administered; doses were 200 and 600 mcg/m^2).
(§3) The NCI-Common Tosicity Criteria grading system (CTC Grade), Version 2.0, was used to report toxicities.

[2] = test system: murine leukemias, solid murine and human tumor models; settings: cited from earlier work
[3] = test system: liver lesions of breast cancer patients with liver metastases; settings: 1500 mcg/m^2 i.v., cited from earlier work
tumor cells = settings: mouse, rat and human liver microsomes; cited from earlier work
[4] = test system: liver metastases in colorectal and renal cancer patients; settings: i.v., cited from earlier work
[5] = test system: patients with liver cancer; assay: Hematological toxicity - Leucocytes, worst CTC Grade by cycle, intrahepatic artery nemorubicin q8wk vs q6wk; format: in vivo, human
Experimental: as §1, §2, §3
A slight cumulative effect (i.e., increase in frequency but not in severity) was observed after repeated cycles for leucopenia and neutropenia (Tables 2 and 3), mainly with the q8wk schedule.

[6] = test system: tumor cells resistant to L-PAM or cDDP, or cells resistant to Topoisomerase II inhibitors (at-mdr); settings: cited from earlier work
[7] = 600 mcg/m^2 q6wk, 18 evaluable cycles
[8] = 600 mcg/m^2 q8wk, 7 evaluable cycles
[9] = 800 mcg/m^2 q8wk, 5 evaluable cycles
[10] = 800 mcg/m^2 q8wk, 6 evaluable cycles
[11] = 200 mcg/m^2 q6wk, All cycles, 11 evaluable cycles
[12] = 200 mcg/m^2 q6wk, Cycles > 1, 6 evaluable cycles
[13] = 200 mcg/m^2 q8wk, All cycles, 5 evaluable cycles
[14] = 200 mcg/m^2 q8wk, Cycle 1, 3 evaluable cycles
[15] = 200 mcg/m^2 q8wk, Cycles > 1, 2 evaluable cycles
[16] = 400 mcg/m^2 q8wk, All cycles, 4 evaluable cycles
[17] = 400 mcg/m^2 q8wk, Cycle 1, 3 evaluable cycles
[18] = 600 mcg/m^2 q6wk, All cycles, 18 evaluable cycles
[19] = 600 mcg/m^2 q6wk, Cycle 1, 6 evaluable cycles
[20] = 600 mcg/m^2 q6wk, Cycles > 1, 12 evaluable cycles
[21] = 600 mcg/m^2 q8wk, All cycles, 8 evaluable cycles
[22] = 600 mcg/m^2 q8wk, Cycle 1, 4 evaluable cycles
[23] = 600 mcg/m^2 q8wk, Cycles > 1, 4 evaluable cycles
[24] = 800 mcg/m^2 q8wk, All cycles, 4 evaluable cycles
[25] = 800 mcg/m^2 q8wk, Cycle 1, 3 evaluable cycles
[26] = 800 mcg/m^2 q8wk, Cycles > 1, 1 evaluable cycle

With `COc1cccc2c1C(=O)c1c(O)c3c(c(O)c1C2=O)C[C@@](O)(C(=O)CO)C[C@@H]3O[C@H]1C[C@H](N2CCO[C@H](OC)C2)[C@H](O)[C@H](C)O1.Cl` [nemorubicin, 3′desamino-3′[2(S)methoxy-4-morpholinyl]doxorubicin-hydrochloride] the “SGPT, worst CTC Grade by cycle (increased of at least one Grade versus baseline Grade): Grade 3-4 (%)” value [1, 7] was 2 (11%) (%), the “Total Bilirubin, worst CTC Grade by cycle (increased of at least one Grade versus baseline Grade): All Grades (%)” value [1, 7] was 14 (77%) (%) and the “Total Bilirubin, worst CTC Grade by cycle (increased of at least one Grade versus baseline Grade): Grade 1-2 (%)” value [1, 7] was 13 (72%) (%). For the same compound, the “Total Bilirubin, worst CTC Grade by cycle (increased of at least one Grade versus baseline Grade): Grade 3-4 (%)” value [1, 7] was 1 (5%) (%), the “SGOT, worst CTC Grade by cycle (increased of at least one Grade versus baseline Grade): All Grades (%)” value [1, 8] was 4 (57%) (%) and the “SGOT, worst CTC Grade by cycle (increased of at least one Grade versus baseline Grade): Grade 1-2 (%)” value [1, 8] was 2 (28%) (%). The “SGPT, worst CTC Grade by cycle (increased of at least one Grade versus baseline Grade): All Grades (%)” value [1, 8] was 4 (57%) (%), the “SGPT, worst CTC Grade by cycle (increased of at least one Grade versus baseline Grade): Grade 1-2 (%)” value [1, 8] was 1 (14%) (%) and the “Total Bilirubin, worst CTC Grade by cycle (increased of at least one Grade versus baseline Grade): All Grades (%)” value [1, 8] was 7 (100%) (%). The “Total Bilirubin, worst CTC Grade by cycle (increased of at least one Grade versus baseline Grade): Grade 1-2 (%)” value [1, 8] was 7 (100%) (%), the “SGOT, worst CTC Grade by cycle (increased of at least one Grade versus baseline Grade): All Grades (%)” value [1, 9] was 4 (80%) (%) and the “SGOT, worst CTC Grade by cycle (increased of at least one Grade versus baseline Grade): Grade 1-2 (%)” value [1, 9] was 1 (20%) (%). The “SGOT, worst CTC Grade by cycle (increased of at least one Grade versus baseline Grade): Grade 3-4 (%)” value [1, 9] was 3 (60%) (%), the “Total Bilirubin, worst CTC Grade by cycle (increased of at least one Grade versus baseline Grade): All Grades (%)” value [1, 9] was 4 (80%) (%) and the “Total Bilirubin, worst CTC Grade by cycle (increased of at least one Grade versus baseline Grade): Grade 1-2 (%)” value [1, 9] was 3 (60%) (%). The “Total Bilirubin, worst CTC Grade by cycle (increased of at least one Grade versus baseline Grade): Grade 3-4 (%)” value [1, 9] was 1 (20%) (%), the “SGPT, worst CTC Grade by cycle (increased of at least one Grade versus baseline Grade): All Grades (%)” value [1, 10] was 5 (83%) (%) and the “SGPT, worst CTC Grade by cycle (increased of at least one Grade versus baseline Grade): Grade 3-4 (%)” value [1, 10] was 5 (83%) (%). For the same compound, the “frequency of transaminitis, grade 3-4 events” value ([1]; q6wk versus q8wk schedule) was “lower in the q6wk than in the q8wk schedule”, the antitumor activity ([2]; after i.p., i.v. or oral administration, murine leukemias, solid murine and human tumor models) was “good antitumor activity” and the “effective oral doses, fold higher than the effective i.v. doses” value ([2]; animal tumor models, oral vs i.v.) was 1.3-2 fold. For the same compound, the “optimal i.v. dose, fold less than that of doxorubicin” value ([2]; in vivo, i.v.) was “at least 80 fold”, the “complete response (CR) in liver lesions” value ([3]; 6 patients) was 1 and the “partial responses (PRs) in liver lesions (2 confirmed and 1 unconfirmed)” value ([3]; 6 patients) was 3. The “patients with response in liver lesions” value [3] was 4 out of 6, the “cytotoxic activity in vitro in the presence of liver microsomes” value (tumor cells) was “increased” and the principle toxicities [4] was “nausea and vomiting (requiring intravenous antiemetic treatment), myelosuppression and transient elevations in transaminases”. For the same compound, the antitumor effect observed ([4]; tumor shrinkage at doses of 1250 and 1500 mcg/m^2, 197 patients) was “regressions of liver metastases were repeatedly observed”, the “Leucocytes, worst CTC Grade by cycle: All Grades (%)” value (shortened to “Leucocytes … All Grades (%)”) [5, 11] was 4 (36%) (%) and the “Leucocytes, worst CTC Grade by cycle: Grade 1-2 (%)” value (shortened to “Leucocytes … Grade 1-2 (%)”) [5, 11] was 3 (27%) (%). The “Leucocytes … All Grades (%)” value ([5]; 200 mcg/m^2 q6wk, Cycle 1, 5 evaluable cycles) was 1 (20%) (%), the “Leucocytes … All Grades (%)” value [5, 12] was 3 (50%) (%) and the “Leucocytes … Grade 1-2 (%)” value [5, 12] was 3 (50%) (%). For the same compound, the “Leucocytes … All Grades (%)” value [5, 13] was 4 (80%) (%), the “Leucocytes … Grade 1-2 (%)” value [5, 13] was 4 (80%) (%) and the “Leucocytes … All Grades (%)” value [5, 14] was 2 (67%) (%). The “Leucocytes … Grade 1-2 (%)” value [5, 14] was 2 (67%) (%), the “Leucocytes … All Grades (%)” value [5, 15] was 2 (100%) (%) and the “Leucocytes … Grade 1-2 (%)” value [5, 15] was 2 (100%) (%). The “Leucocytes … All Grades (%)” value [5, 16] was 1 (25%) (%), the “Leucocytes … Grade 1-2 (%)” value [5, 16] was 1 (25%) (%) and the “Leucocytes … All Grades (%)” value [5, 17] was 1 (33%) (%). For the same compound, the “Leucocytes … Grade 1-2 (%)” value [5, 17] was 1 (33%) (%), the “Leucocytes … All Grades (%)” value [5, 18] was 8 (44%) (%) and the “Leucocytes … Grade 1-2 (%)” value [5, 18] was 8 (44%) (%). The “Leucocytes … All Grades (%)” value [5, 19] was 2 (33%) (%), the “Leucocytes … Grade 1-2 (%)” value [5, 19] was 2 (33%) (%) and the “Leucocytes … All Grades (%)” value [5, 20] was 6 (50%) (%). The “Leucocytes … Grade 1-2 (%)” value [5, 20] was 6 (50%) (%), the “Leucocytes … All Grades (%)” value [5, 21] was 7 (87%) (%) and the “Leucocytes … Grade 1-2 (%)” value [5, 21] was 7 (87%) (%). The “Leucocytes … All Grades (%)” value [5, 22] was 3 (75%) (%), the “Leucocytes … Grade 1-2 (%)” value [5, 22] was 3 (75%) (%) and the “Leucocytes … All Grades (%)” value [5, 23] was 4 (100%) (%). The “Leucocytes … Grade 1-2 (%)” value [5, 23] was 4 (100%) (%), the “Leucocytes … All Grades (%)” value [5, 24] was 3 (75%) (%) and the “Leucocytes … Grade 1-2 (%)” value [5, 24] was 3 (75%) (%). The “Leucocytes … All Grades (%)” value [5, 25] was 2 (67%) (%), the “Leucocytes … Grade 1-2 (%)” value [5, 25] was 2 (67%) (%) and the “Leucocytes … All Grades (%)” value [5, 26] was 1 (100%) (%). For the same compound, the “Leucocytes … Grade 1-2 (%)” value [5, 26] was 1 (100%) (%) and the cross-resistance [6] was “No cross-resistance”.
